From patent US9809574B2, “Isoindoline or isoquinoline compounds, a process for their preparation and pharmaceutical compositions containing them” (LES LABORATOIRES SERVIER, priority 2013, dated 2017)

Experiments:
[1] = target: Bcl-2 protein (histag-Bcl-2, UniProtKB P10415) (Homo sapiens (Human), UniProt P10415); assay: Inhibition of Bcl-2 by the fluorescence polarisation technique; format: binding; settings: fluorescence polarisation test; incubation for 2 hours; read-out: IC50 (nM) Bcl-2 FP
Description: For partial inhibitors, the percentage fluorescence polarisation inhibition for a given concentration of the test compound is indicated.

[2] = test system: RS4; 11 leukaemia cell line; assay: In vitro cytotoxicity, Microculture Tetrazolium Assay (MTT); format: cell-based; settings: Homo sapiens, 11 cells exposed for 48 hours
Method: The cytotoxicity studies were carried out on the RS4; 11 leukaemia cell line and on H146 small Cell Lung Carcinoma cell line. The cells are distributed onto microplates and exposed to the test compounds for 48 hours. The cell viability is then quantified by a colorimetric assay, the Microculture Tetrazolium Assay (Cancer Res., 1987, 47, 939-942).

Bcl-2 protein, sequence (P10415 whole entry): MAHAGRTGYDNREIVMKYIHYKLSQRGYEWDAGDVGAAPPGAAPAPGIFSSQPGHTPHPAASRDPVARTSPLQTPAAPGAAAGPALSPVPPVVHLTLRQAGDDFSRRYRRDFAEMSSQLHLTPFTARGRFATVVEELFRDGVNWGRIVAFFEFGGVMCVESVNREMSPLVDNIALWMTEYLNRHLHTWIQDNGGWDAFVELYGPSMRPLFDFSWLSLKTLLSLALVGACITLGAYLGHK

Row | Structure (SMILES) | IC50 [1] [nM] | IC50 [2] [nM]
1 | C[C@@H]1Cc2ccccc2CN1C(=O)c1cc2c(cc1-c1cc(C(=O)N(C)c3ccc(O)cc3)c3n1CCCC3)CN(CC(=O)Nc1ccccc1)C2 [Example 92, N-(4-Hydroxyphenyl)-N-methyl-3-{6-[(3R)-3-methyl-1,2,3,4-tetrahydroisoquinoline-2-carbonyl]-2-[(phenylcarbamoyl)methyl]-2,3-dihydro-1H-isoindol-5-yl}-5,6,7,8-tetrahydroindolizine-1-carboxamide] | 20 | 105
2 | CN(C(=O)c1cc(-c2cc3c(cc2C(=O)N2Cc4ccccc4C[C@H]2CN2CCOCC2)CN(S(=O)(=O)c2ccccc2)CC3)n2c1CCCC2)c1ccc(O)cc1 [Example 3, 3-[2-(Benzenesulfonyl)-7-[(3S)-3-(morpholin-4-ylmethyl)-1,2,3,4-tetrahydroisoquinoline-2-carbonyl]-1,2,3,4-tetrahydroisoquinolin-6-yl]-N-(4-hydroxyphenyl)-N-methyl-5,6,7,8-tetrahydroindolizine-1-carboxamide] | 18 | 236
